Assays:
Type in all cases: binding
Settings in all cases: Compound Concentration 10 µM
panel of 442 kinases [1] = molecular target: T1, panel of 442 kinases (Homo sapiens, UniProt O15111)
T1 construct: purchased KINOMEscan
T1 sequence (O15111 1-745): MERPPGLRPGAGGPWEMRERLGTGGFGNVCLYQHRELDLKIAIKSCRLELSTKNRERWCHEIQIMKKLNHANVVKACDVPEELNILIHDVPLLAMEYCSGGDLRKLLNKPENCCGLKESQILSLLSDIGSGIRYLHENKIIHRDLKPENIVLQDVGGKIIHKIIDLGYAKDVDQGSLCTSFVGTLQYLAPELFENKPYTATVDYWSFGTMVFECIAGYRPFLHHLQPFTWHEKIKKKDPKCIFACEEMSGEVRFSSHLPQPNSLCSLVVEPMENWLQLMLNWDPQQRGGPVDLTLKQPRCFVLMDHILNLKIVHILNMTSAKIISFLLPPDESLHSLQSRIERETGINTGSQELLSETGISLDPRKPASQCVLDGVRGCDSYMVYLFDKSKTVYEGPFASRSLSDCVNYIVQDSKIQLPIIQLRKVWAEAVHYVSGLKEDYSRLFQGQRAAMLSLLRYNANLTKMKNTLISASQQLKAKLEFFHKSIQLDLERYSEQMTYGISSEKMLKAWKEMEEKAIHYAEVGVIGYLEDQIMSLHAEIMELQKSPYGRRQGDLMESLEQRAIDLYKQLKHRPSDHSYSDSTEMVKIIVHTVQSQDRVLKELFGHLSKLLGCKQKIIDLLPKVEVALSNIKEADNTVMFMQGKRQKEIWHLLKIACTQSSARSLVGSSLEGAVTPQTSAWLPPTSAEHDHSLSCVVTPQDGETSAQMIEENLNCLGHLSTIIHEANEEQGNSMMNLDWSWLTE
From the text: (§1) We assessed the selectivity of members of this scaffold using the KINOMEscan methodology across a near comprehensive panel of 442 kinases [[18,27]].

panel of 442 kinases [2] = molecular target: T2, panel of 442 kinases (Homo sapiens, UniProt P45984)
T2 construct: purchased KINOMEscan
T2 sequence (P45984 whole entry): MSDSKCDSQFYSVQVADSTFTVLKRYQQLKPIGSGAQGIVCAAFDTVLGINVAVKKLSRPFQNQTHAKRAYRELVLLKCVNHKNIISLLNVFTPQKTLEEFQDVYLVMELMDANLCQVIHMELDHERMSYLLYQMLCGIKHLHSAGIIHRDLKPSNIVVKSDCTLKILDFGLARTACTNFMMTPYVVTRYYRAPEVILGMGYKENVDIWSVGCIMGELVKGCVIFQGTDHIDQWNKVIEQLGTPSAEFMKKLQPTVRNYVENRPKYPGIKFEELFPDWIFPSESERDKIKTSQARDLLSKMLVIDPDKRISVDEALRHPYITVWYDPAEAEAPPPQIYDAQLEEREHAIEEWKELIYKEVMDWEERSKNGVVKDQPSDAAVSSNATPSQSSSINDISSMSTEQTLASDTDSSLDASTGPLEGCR
From the text: as §1

panel of 442 kinases [3] = molecular target: T3, panel of 442 kinases (Homo sapiens, UniProt P00533, DEL746-750)
T3 construct: purchased KINOMEscan
T3 sequence (P00533 with tags, fused parts or gaps DEL746-750): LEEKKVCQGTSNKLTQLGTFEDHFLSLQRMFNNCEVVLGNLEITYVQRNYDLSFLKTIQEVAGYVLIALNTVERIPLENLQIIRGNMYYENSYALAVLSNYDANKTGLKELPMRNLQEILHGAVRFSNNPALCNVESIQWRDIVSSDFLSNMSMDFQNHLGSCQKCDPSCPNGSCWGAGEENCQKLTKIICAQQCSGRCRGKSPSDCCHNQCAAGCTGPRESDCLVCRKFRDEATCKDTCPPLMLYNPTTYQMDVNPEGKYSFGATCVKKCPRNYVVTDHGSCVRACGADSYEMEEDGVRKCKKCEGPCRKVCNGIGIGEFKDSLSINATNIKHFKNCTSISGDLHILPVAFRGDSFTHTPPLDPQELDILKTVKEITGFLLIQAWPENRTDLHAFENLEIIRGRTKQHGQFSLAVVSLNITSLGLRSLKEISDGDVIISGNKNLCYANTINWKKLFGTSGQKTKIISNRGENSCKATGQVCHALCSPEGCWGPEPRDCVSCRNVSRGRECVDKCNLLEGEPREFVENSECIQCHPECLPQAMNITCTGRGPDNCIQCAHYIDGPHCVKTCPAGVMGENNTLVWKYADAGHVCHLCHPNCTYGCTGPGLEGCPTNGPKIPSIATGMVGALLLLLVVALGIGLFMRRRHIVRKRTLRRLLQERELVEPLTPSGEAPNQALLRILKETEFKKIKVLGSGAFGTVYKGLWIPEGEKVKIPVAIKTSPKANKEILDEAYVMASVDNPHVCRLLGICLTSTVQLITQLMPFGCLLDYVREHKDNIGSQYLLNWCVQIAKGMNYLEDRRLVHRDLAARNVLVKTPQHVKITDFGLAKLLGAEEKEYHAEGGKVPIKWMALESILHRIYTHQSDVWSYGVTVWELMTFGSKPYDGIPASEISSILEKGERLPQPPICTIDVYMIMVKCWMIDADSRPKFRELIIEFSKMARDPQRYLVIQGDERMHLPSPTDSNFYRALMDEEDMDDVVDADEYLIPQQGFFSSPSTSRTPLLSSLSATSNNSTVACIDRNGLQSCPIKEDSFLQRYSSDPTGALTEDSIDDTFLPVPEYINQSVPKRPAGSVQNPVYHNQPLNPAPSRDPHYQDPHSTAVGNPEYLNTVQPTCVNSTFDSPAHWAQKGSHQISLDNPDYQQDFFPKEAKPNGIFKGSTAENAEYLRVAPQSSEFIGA
From the text: as §1

With `COc1cc(C(=O)N2CCC(N3CCN(C)CC3)CC2)ccc1Nc1ncc2c(n1)N(C1CCCC1)c1ccccc1C(=O)N2C` [Compound 25, 11-cyclopentyl-2-((2-methoxy-4-(4-(4-methylpiperazin-1-yl)piperidine-1-carbonyl)phenyl)amino)-5-methyl-5H-benzo[e]pyrimido[5,4-b][1,4]diazepin-6(11H)-one] the “KINOMEscan: IKK-alpha” value (panel of 442 kinases [1]) was 100, the “KINOMEscan: JNK2” value (panel of 442 kinases [2]) was 44 and the “KINOMEscan: EGFR(E746-A750del)” value (panel of 442 kinases [3]) was 80.

For `COc1cc(C(=O)N2CCC(N3CCN(C)CC3)CC2)ccc1Nc1ncc2c(n1)N1CCc3cccc(c31)C(=O)N2C` [Compound 24], the “KINOMEscan: JNK2” value (panel of 442 kinases [2]) was 42.

For `COc1cc(C(=O)N2CCC(N3CCN(C)CC3)CC2)ccc1Nc1ncc2c(n1)N(C)c1ccccc1C(=O)N2C` [15 (LRRK2-IN-1)], the “KINOMEscan: IKK-alpha” value (panel of 442 kinases [1]) was 100, the “KINOMEscan: JNK2” value (panel of 442 kinases [2]) was 94 and the “KINOMEscan: EGFR(E746-A750del)” value (panel of 442 kinases [3]) was 72.

`CCOc1cc(C(=O)N2CCC(N3CCN(C)CC3)CC2)ccc1Nc1ncc2c(n1)N(C1CCCC1)c1ccccc1C(=O)N2C` [Compound 26] was tested, and the “KINOMEscan: IKK-alpha” value (panel of 442 kinases [1]) was 100, the “KINOMEscan: JNK2” value (panel of 442 kinases [2]) was 63 and the “KINOMEscan: EGFR(E746-A750del)” value (panel of 442 kinases [3]) was 100.

Reference: PMC3914206
